target: T1, FLT3 (Homo sapiens, UniProt P36888); test: RBC HotSpot Kinase Assay, FLT3; format: biochemical; parameters: purchased Reaction Biology (RBC HotSpot); details: isolated kinase enzyme, 33P-ATP, P81 filter-binding
T1 sequence (P36888 27-993): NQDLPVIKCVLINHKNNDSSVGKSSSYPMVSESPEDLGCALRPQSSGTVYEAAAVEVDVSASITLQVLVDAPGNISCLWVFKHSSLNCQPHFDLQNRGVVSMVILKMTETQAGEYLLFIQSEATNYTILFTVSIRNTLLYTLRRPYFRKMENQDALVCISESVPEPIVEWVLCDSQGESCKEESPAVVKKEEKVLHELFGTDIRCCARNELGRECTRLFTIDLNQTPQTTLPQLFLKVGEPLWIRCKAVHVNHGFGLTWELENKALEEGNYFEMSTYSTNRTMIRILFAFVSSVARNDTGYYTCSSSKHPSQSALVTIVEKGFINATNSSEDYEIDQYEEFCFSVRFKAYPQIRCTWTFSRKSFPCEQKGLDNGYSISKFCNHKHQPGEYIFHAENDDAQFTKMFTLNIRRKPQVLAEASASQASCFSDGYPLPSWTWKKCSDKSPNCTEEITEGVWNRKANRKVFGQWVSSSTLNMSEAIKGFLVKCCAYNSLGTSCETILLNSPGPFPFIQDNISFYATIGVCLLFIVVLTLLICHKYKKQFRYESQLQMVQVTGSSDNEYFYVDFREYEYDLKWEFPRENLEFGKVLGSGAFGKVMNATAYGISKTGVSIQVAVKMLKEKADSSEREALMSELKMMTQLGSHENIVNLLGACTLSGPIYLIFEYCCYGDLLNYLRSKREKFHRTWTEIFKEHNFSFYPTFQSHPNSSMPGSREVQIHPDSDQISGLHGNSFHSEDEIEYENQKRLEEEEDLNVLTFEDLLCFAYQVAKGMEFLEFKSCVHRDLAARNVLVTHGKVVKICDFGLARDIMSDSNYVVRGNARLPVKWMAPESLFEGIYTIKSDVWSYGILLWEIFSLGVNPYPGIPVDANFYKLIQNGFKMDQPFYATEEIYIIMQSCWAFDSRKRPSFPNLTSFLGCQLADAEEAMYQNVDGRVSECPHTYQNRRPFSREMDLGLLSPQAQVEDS
Procedure, shortened: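 Radiometric HotSpot assay of catalytic activity with isolated recombinant kinase, possibly truncated or kinase domain only. Buffer: 20 mM Hepes pH 7.5, 10 mM MgCl2, 1 mM EGTA, 0.01% Brij35, 0.02 mg/ml BSA, 0.1 mM Na3VO4, 2 mM DTT, 1% DMSO, with cofactors specific to each kinase.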

Going from `CC(O)(c1ccc2ncc(-c3ccnc(N[C@@H]4CCCNC4)n3)n2c1)C(F)(F)F` (single isomer, unassigned) [Compound 22a] to `CC(O)(c1ccc2ncc(-c3ccnc(N[C@H]4CNCC[C@@H]4F)n3)n2c1)C(F)(F)F` (single isomer, unassigned) [Compound 25a], the IC50 falls from 0.6 nM to under 0.5 nM. The second is the more potent here.

Compared with `CC(O)(c1ccc2ncc(-c3ccnc(N[C@@H]4CCCNC4)n3)n2c1)C(F)(F)F` (single isomer, unassigned) [Compound 23a], `CC(O)(c1ccc2ncc(-c3cncc(N[C@@H]4CCCNC4)n3)n2c1)C(F)(F)F` (single isomer, unassigned) [Compound 28a] is higher in IC50: under 0.5 nM for the first, 2 nM for the second.

Compared with `CC(O)(c1ccc2ncc(-c3cncc(N[C@H]4CNCC[C@@H]4F)n3)n2c1)C(F)(F)F` (single isomer, unassigned) [Compound 31a], `CC(C)(O)c1ccc2ncc(-c3nc(N[C@H]4CNCC[C@@H]4F)ncc3F)n2c1` [Compound 46a, 2-(3-(5-fluoro-2-(((3S,4S)-4-fluoropiperidin-3-yl)amino)pyrimidin-4-yl)imidazo[1,2-a]pyridin-6-yl)propan-2-ol] is lower in IC50: 1 nM for the first, under 0.7 nM for the second.

Going from `COc1cc2ncc(-c3nc(N[C@H]4CNCC[C@@H]4F)ncc3F)n2nc1C1CC1` [Compound 1a, 4-(6-cyclopropyl-7-methoxyimidazo[1,2-b]pyridazin-3-yl)-5-fluoro-N-((3S,4S)-4-fluoropiperidin-3-yl)pyrimidin-2-amine] to `COc1cc2ncc(-c3nc(N[C@H]4CNCC[C@@H]4F)ncc3F)n2nc1C1COC1` [Compound 92a, 5-fluoro-N-((3S,4S)-4-fluoropiperidin-3-yl)-4-(7-methoxy-6-(oxetan-3-yl)imidazo[1,2-b]pyridazin-3-yl)pyrimidin-2-amine], the IC50 falls from 0.5 nM to under 0.5 nM.

`FC(F)COc1cc2ncc(-c3ccnc(N[C@H]4CNCC[C@@H]4F)n3)n2nc1C1CC1` [Compound 4a, 4-(6-cyclopropyl-7-(2,2-difluoroethoxy)imidazo[1,2-b]pyridazin-3-yl)-N-((3 S,4S)-4-fluoropiperidin-3-yl)pyrimidin-2-amine] and `F[C@H]1CCNC[C@@H]1Nc1nccc(-c2cnc3cc(OC4CC4)c(C4CC4)nn23)n1` [Compound 12a, 4-(7-cyclopropoxy-6-cyclopropylimidazo[1,2-b]pyridazin-3-yl)-N-((3S,4S)-4-fluoropiperidin-3-yl)pyrimidin-2-amine] cannot be ordered by IC50: under 0.5 nM for the first, under 0.5 nM for the second.

`COc1cc2ncc(-c3nc(N[C@H]4CNCC[C@@H]4F)ncc3F)n2nc1C(C)(C)O` [Compound 45a, 2-(3-(5-fluoro-2-(((3S,4S)-4-fluoropiperidin-3-yl)amino)pyrimidin-4-yl)-7-methoxyimidazo[1,2-b]pyridazin-6-yl)propan-2-ol] and `COc1cc2ncc(-c3nc(N[C@H]4CNCC[C@@H]4F)ncc3F)n2nc1C1CC(F)(F)C1` [Compound 49a, 4-(6-(3,3-difluorocyclobutyl)-7-methoxyimidazo[1,2-b]pyridazin-3-yl)-5-fluoro-N-((3S,4S)-4-fluoropiperidin-3-yl)pyrimidin-2-amine] cannot be ordered by IC50: under 0.5 nM for the first, under 0.5 nM for the second.

`CC(C)(O)c1ccc2ncc(-c3nc(N[C@@H]4CCCNC4)ncc3F)n2c1` [Compound 48a, (R)-2-(3-(5-fluoro-2-(piperidin-3-ylamino)pyrimidin-4-yl)imidazo[1,2-a]pyridin-6-yl)propan-2-ol] and `CC(C)(O)c1cn2c(-c3nc(N[C@H]4CNCC[C@@H]4F)ncc3F)cnc2cn1` [Compound 100a, 2-(3-(5-fluoro-2-(((3S,4S)-4-fluoropiperidin-3-yl)amino)pyrimidin-4-yl)imidazo[1,2-a]pyrazin-6-yl)propan-2-ol] are the same in IC50: 1 nM for the first, 1 nM for the second.

`COc1cc2ncc(-c3nc(N[C@@H]4CCCNC4)ncc3F)n2nc1C1CC2(CCC2)C1` [Compound 59a, (R)-5-fluoro-4-(7-methoxy-6-(spiro[3.3]heptan-2-yl)imidazo[1,2-b]pyridazin-3-yl)-N-(piperidin-3-yl)pyrimidin-2-amine] and `COc1cc2ncc(-c3nc(N[C@H]4CNCC[C@@H]4F)ncc3F)n2nc1C1CC2(CCC2)C1` [Compound 60a, 5-fluoro-N-((3S,4S)-4-fluoropiperidin-3-yl)-4-(7-methoxy-6-(spiro[3.3]heptan-2-yl)imidazo[1,2-b]pyridazin-3-yl)pyrimidin-2-amine] cannot be ordered by IC50: under 0.5 nM for the first, under 0.5 nM for the second.

`COc1cc2ncc(-c3ccnc(N[C@H]4CNCC[C@@H]4F)n3)n2nc1C1CCC1` [Compound 79a, 4-(6-cyclobutyl-7-methoxyimidazo[1,2-b]pyridazin-3-yl)-N-((3S,4S)-4-fluoropiperidin-3-yl)pyrimidin-2-amine] and `COc1cc2ncc(-c3nc(N[C@H]4CNCC[C@@H]4F)ncc3F)n2nc1N1CCCS1(=O)=O` [Compound 112a, 2-(3-(5-fluoro-2-(((3S,4S)-4-fluoropiperidin-3-yl)amino)pyrimidin-4-yl)-7-methoxyimidazo[1,2-b]pyridazin-6-yl)isothiazolidine 1,1-dioxide] cannot be ordered by IC50: under 0.5 nM for the first, under 0.5 nM for the second.

For `COc1cc2ncc(-c3nc(N[C@H]4CNC[C@@H]4F)ncc3F)n2nc1N1CCCS1(=O)=O` [Compound 111a, 2-(3-(5-fluoro-2-(((3S,4S)-4-fluoropyrrolidin-3-yl)amino)pyrimidin-4-yl)-7-methoxyimidazo[1,2-b]pyridazin-6-yl)isothiazolidine 1,1-dioxide], the IC50 was under 0.5 nM.
